Measurements taken from publication PMC9249791, “Molecular dissection of the glutamine synthetase-GlnR nitrogen regulatory circuitry in Gram-positive bacteria” (Nature Communications, 2022).

Columns and labels:
Assay type in all cases: binding
Bs GS = target: T1, Bs GS (Bacillus subtilis, UniProt P12425); assay: cryo-EM structure […] Å; conditions: 20 mM glutamine, 5 mM MgCl2, pH 7.5, with GlnR C-tail peptide; overlaps glutamate site
T1 construct: gene glnA; full-length, synthetic gene in pET15b, N-terminal His-tag, E. coli C41(DE3); apo dodecamer
T1 sequence (P12425 1-444): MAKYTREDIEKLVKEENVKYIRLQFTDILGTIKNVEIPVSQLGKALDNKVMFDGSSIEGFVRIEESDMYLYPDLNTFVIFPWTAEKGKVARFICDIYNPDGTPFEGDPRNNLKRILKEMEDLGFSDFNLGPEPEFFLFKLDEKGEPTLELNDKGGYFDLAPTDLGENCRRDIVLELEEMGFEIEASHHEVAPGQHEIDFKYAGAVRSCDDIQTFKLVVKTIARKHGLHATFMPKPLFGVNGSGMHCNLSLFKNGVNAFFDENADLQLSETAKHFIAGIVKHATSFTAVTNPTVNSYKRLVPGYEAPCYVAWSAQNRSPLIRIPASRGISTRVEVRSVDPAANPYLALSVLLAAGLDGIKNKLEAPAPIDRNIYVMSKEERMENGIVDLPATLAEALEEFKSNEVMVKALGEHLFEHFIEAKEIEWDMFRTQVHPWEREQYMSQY

Lm GS = target: T2, Lm GS (Listeria monocytogenes, UniProt A0A5D5GA79); assay: cryo-EM structure […] Å; conditions: 20 mM glutamine, 5 mM MgCl2, pH 7.5, with GlnR C-tail peptide; overlaps glutamate site
T2 construct: gene glnA; full-length, synthetic gene in pET15b, N-terminal His-tag, E. coli C41(DE3); apo dodecamer
T2 sequence (A0A5D5GA79 1-444): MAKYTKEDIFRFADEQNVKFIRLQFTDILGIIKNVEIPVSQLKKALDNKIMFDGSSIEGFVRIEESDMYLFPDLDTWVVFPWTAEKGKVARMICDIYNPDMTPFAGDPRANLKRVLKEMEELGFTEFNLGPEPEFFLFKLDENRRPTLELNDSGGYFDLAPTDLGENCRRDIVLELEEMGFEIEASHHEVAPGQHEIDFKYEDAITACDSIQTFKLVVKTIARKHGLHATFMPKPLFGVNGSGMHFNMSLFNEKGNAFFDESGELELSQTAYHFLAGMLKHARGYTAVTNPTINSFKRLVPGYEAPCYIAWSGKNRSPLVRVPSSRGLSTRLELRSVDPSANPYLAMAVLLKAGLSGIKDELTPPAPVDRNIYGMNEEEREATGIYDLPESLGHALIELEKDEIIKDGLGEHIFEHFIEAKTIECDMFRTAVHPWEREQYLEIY

Sa GS = target: T3, Sa GS (Staphylococcus aureus, UniProt P0A040); assay: isothermal titration calorimetry
T3 construct: gene glnA; full-length, synthetic gene in pET15b, N-terminal His-tag, E. coli C41(DE3); tag removed only for crystallography; dodecamer (double hexamer ring)
T3 sequence (P0A040 1-446): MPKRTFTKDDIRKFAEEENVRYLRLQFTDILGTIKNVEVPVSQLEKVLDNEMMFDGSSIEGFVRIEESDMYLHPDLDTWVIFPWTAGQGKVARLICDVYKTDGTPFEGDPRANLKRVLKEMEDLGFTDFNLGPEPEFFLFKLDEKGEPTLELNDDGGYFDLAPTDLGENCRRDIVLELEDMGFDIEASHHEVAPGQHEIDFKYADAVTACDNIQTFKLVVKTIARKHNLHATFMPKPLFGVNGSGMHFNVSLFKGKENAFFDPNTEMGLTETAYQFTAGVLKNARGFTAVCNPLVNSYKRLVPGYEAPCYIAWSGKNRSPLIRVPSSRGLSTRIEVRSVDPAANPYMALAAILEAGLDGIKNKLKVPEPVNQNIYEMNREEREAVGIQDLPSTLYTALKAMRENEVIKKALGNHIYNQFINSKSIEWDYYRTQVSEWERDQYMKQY

Pp GS = target: T4, Pp GS (Paenibacillus polymyxa, UniProt A0A0F0G8G2); assay: cryo-EM structure […]-2.[…] Å; conditions: 20 mM glutamine, 5 mM MgCl2, pH 7.5, with GlnR C-tail peptide; overlaps glutamate site
T4 construct: gene glnA2; full-length, synthetic gene in pET15b, N-terminal His-tag (removed by thrombin for crystallography), E. coli C41(DE3)
T4 sequence (A0A0F0G8G2 1-442): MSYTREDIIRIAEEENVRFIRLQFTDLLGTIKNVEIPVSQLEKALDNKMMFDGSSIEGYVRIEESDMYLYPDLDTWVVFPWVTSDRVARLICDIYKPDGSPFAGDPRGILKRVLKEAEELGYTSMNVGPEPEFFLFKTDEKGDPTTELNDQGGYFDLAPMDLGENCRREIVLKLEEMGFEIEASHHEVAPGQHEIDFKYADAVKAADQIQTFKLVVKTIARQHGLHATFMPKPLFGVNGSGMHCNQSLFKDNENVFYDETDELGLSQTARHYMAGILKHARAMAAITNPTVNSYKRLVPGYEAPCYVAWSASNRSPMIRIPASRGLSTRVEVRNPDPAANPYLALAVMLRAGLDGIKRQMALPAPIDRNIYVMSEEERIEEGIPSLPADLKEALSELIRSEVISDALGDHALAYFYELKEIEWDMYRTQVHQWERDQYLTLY

SMILES: NC(=O)CC[C@H](N)C(=O)O [glutamine]
- cryo-EM structure 1.96 Å (Bs GS): Glutamine binds identically in each structure to form FBI-GS
- cryo-EM structure 2.61 Å (Lm GS): Glutamine binds identically in each structure to form FBI-GS
- Kd (Sa GS): 500 µM
- cryo-EM structure 2.07-2.28 Å (Pp GS): Glutamine binds identically in each structure to form FBI-GS
